Measurements reported in patent US9708336B2, “Metallo-beta-lactamase inhibitors” (priority 2014, dated 2017).
Like-named read-outs stand apart in the source and are kept apart here.

Experiments:
NDM-1 = NDM-1 (Klebsiella pneumoniae, UniProt C7C422); test: biochemical; format: biochemical; conditions: read-out: NDM-1 IC50
VIM-1 = VIM-1 (Pseudomonas aeruginosa (strain ATCC 15692 / DSM 22644 / CIP 104116 / JCM 14847 / LMG 12228 / 1C / PRS 101 / PAO1), UniProt A0A0F7KYQ8); test: Enzyme activity: determination of IC50, fluorescence assay with CCF2-FA substrate (VIM-1); format: biochemical
IMP-1 = IMP-1 (Serratia marcescens, UniProt P52699); test: biochemical; format: biochemical
[1] = test system: Escherichia coli expressing NDM-1 (CLB30005); test: Antibiotic potentiation activity: synergistic concentration (MITC95) with imipenem, OD600 growth; format: cell-based; conditions: for Escherichia coli expressing NDM-1 (CLB 30005) MITC95: concentration giving 95% inhibition of bacterial growth; for Escherichia coli MITC95: Escherichia coli expressing NDM-1 (CLB30005), 95% growth inhibition
Summary of the method: (§1)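 Growth after 22–24 h at 35 °C is measured spectrophotometrically for bacteria incubated with compound plus imipenem (4 μg/ml in-well, or 1 μg/ml). Cells come from overnight agar colonies resuspended in saline and diluted 1:100 in 1.1× CAMHB.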

[2] = test system: Serratia marcescens expressing IMP-1 (CL5741); test: as above; format: cell-based; conditions: for Serratia marcescens expressing IMP-1 (CL5741) MITC95: concentration giving 95% inhibition of bacterial growth; for Serratia marcescens MITC95: Serratia marcescens expressing IMP-1 (CL5741), 95% growth inhibition
Summary of the method: as §1

[3] = test system: Klebsiella pneumoniae expressing VIM-1 (IHMA599644); test: as above; format: cell-based; conditions: for Klebsiella pneumoniae expressing VIM-1 (IHMA 599644) MITC95: concentration giving 95% inhibition of bacterial growth; for Klebsiella pneumoniae MITC95: Klebsiella pneumoniae expressing VIM-1 (IHMA599644), 95% growth inhibition
Summary of the method: as §1

[4] = fluorescence assay with CCF2-FA substrate
[5] = fluorescence assay with CCF2-FA substrate, read-out: VIM-1 IC50
[6] = fluorescence assay with CCF2-FA substrate, read-out: IMP-1 IC50
[7] = NDM-1 enzyme, CCF2-FA fluorescence assay

Chain of NDM-1 (C7C422 whole entry, looked up, species assumed): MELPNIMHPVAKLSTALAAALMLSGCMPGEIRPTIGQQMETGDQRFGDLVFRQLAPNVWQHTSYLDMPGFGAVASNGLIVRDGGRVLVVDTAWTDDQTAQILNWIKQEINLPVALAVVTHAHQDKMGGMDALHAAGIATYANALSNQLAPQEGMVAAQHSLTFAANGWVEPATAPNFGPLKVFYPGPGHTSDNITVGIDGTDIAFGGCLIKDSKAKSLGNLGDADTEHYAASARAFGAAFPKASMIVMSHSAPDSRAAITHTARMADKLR
Chain of IMP-1 (P52699 whole entry, looked up): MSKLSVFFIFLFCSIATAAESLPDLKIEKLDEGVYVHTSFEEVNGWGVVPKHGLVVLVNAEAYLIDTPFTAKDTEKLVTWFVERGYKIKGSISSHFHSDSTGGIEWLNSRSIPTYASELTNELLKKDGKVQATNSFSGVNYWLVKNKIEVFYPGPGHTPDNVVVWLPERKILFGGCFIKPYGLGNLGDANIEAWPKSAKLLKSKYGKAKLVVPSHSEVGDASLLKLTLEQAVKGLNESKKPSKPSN

Compound | IC50 (NDM-1; [4]) | Escherichia coli expressing NDM-1 (CLB 30005) MITC95 [1] | Serratia marcescens expressing IMP-1 (CL5741) MITC95 [2] | Klebsiella pneumoniae expressing VIM-1 (IHMA 599644) MITC95 [3] | IC50 (IMP-1; [6]) | further results
C[C@H]1NC(=O)O[C@H]1c1ccc(-c2ccnc(S(N)(=O)=O)c2-c2nnn[nH]2)cc1 (racemic) [Example 191, (±)-4-(4-(cis-4-Methyl-2-oxooxazolidin-5-yl)phenyl)-3-(1H-tetrazol-5-yl)pyridine-2-sulfonamide] | 7.75 nM | 9.375 µM | 15.63 µM | 75 µM |  | IC50 (VIM-1; [5]): 45.9 nM; IC50 (IMP-1): 76 nM
NS(=O)(=O)c1cccc(-c2ccc(C(O)C(F)(F)F)cc2)c1-c1nn[nH]n1 (stereo not shown) [Example 3, 2(2H-tetrazol-5-yl)4′-(2,2,2-trifluoro-1-hydroxyethyl)biphenyl-3-sulfonamide] | 1.49 nM | 0.7813 µM | 1.563 µM | 200 µM | 8.92 nM | IC50 (VIM-1; [5]): 39.9 nM
NS(=O)(=O)c1cccc(-c2nccs2)c1-c1nn[nH]n1 [Example 35, 2-(2H-tetrazol-5-yl)-3-(1,3-thiazol-2-yl)benzenesulfonamide] | 138 nM | 1.953 µM | 50 µM | 100 µM | 2680 nM | 
Cn1ccnc1-c1cccc(S(N)(=O)=O)c1-c1nn[nH]n1 [Example 38, 3-(1-methyl-1H-imidazol-2-yl)-2-(2H-tetrazol-5-yl)benzenesulfonamide] | 281 nM | 0.7813 µM | 25 µM | 200 µM | 2390 nM | 
NS(=O)(=O)c1cccc(-c2ncccn2)c1-c1nn[nH]n1 [Example 39, 3-pyrimidin-2-yl-2-(2H-tetrazol-5-yl)benzenesulfonamide] | 346 nM | 1.563 µM | 50 µM | >200 µM | 2570 nM | 
Cn1cncc1-c1cccc(S(N)(=O)=O)c1-c1nn[nH]n1 [Example 43, 3-(1-methyl-1H-imidazol-5-yl)-2-(2H-tetrazol-5-yl)benzenesulfonamide] | 310 nM | 1.172 µM | 75 µM | >200 µM | 2090 nM | 
CN(C(=O)c1ccc(-c2cccc(S(N)(=O)=O)c2-c2nn[nH]n2)cc1)C1CCOCC1 [Example 77, N-methyl-3′-sulfamoyl-N-(tetrahydro-2H-pyran-4-yl)-2′-(2H-tetrazol-5-yl)biphenyl-4-carboxamide] | 12 nM | 9.375 µM | 28.13 µM | >200 µM | 53.8 nM | 
NS(=O)(=O)c1cccc(-c2ccc(OCCN3CCCCC3)cc2)c1-c1nn[nH]n1 [Example 89, 4′-(2-piperidin-1-ylethoxy)-2-(2H-tetrazol-5-yl)biphen-3-sulfonamide] | 54.7 nM | 4.688 µM | 12.5 µM | >200 µM | 319 nM | 
NS(=O)(=O)c1cccc(-c2ccnc(CO)c2)c1-c1nn[nH]n1 [Example 92, 3-[2-(hydroxymethyl)pyridin-4-yl]-2-(2H-tetrazol-5-yl)benzenesulfonamide] |  | 0.3906 µM | 50 µM |  |  | 
NS(=O)(=O)c1cccc(-c2ccccn2)c1-c1nn[nH]n1 [Example 93, 3-pyridin-2-yl-2-(2H-tetrazol-5-yl)benzenesulfonamide] | 3.17 nM | 0.7813 µM |  | 25 µM | 331 nM | IC50 (VIM-1; [5]): 89.8 nM
NS(=O)(=O)c1cccc(-c2csc(CN3CCOCC3)c2)c1-c1nn[nH]n1 [Example 103, 3-[5-(morpholin-4-ylmethyl)thiophen-3-yl]-2-(2H-tetrazol-5-yl)benzenesulfonamide] | 49.4 nM | 9.375 µM | 15.63 µM | >200 µM | 311 nM | 
CCOC(=O)CCn1cc(-c2cccc(S(N)(=O)=O)c2-c2nn[nH]n2)cn1 [Example 110, ethyl 3-{4-[3-sulfamoyl-2-(2H-tetrazol-5-yl)phenyl]-1H-pyrazol-1-yl}propanoate] | 51.9 nM | 9.375 µM | 28.13 µM | >200 µM | 445 nM | 
NS(=O)(=O)c1cccc(C#CCN2CCC(=O)CC2)c1-c1nn[nH]n1 [Example 146, 3-[3-(4-oxopiperidin-1-yl)prop-1-yn-1-yl]-2-(2H-tetrazol-5-yl)benzenesulfonamide] | 65.5 nM | 1.172 µM | 50 µM | >200 µM | 766 nM | 
NS(=O)(=O)c1nccc(-c2ccc(C(=O)NC3CCOCC3)cc2)c1-c1nnn[nH]1 [Example 186, 4-(2-Sulfamoyl-3-(1H-tetrazol-5-yl)pyridin-4-yl)-N-(tetrahydro-2H-pyran-4-yl)benzamide] | 97.1 nM | 18.75 µM | 100 µM | >200 µM | 564 nM | 
NS(=O)(=O)c1cncc(-c2ccc(CO)cc2)c1-c1nnn[nH]1 [Example 189, 5-(4-(Hydroxymethyl)phenyl)-4-(1H-tetrazol-5-yl)pyridine-3-sulfonamide] | 23.2 nM | 1.563 µM |  | 100 µM | 704 nM | IC50 (VIM-1; VIM-1 IC50, fluorescence assay with CCF2-FA substrate): 685 nM
NS(=O)(=O)c1nccc(-c2cccnc2)c1-c1nnn[nH]1 [Example 193, 3′-(1H-tetrazol-5-yl)-[3,4′-bipyridine]-2′-sulfonamide] | 374 nM | 0.7813 µM | 150 µM | 37.5 µM | 2660 nM | 
CN(C)c1ccc(-c2ccnc(S(N)(=O)=O)c2-c2nn[nH]n2)cn1 [Example 211, 6-(dimethylamino)-3′-(2H-tetrazol-5-yl)-[3,4′-bipyridine]-2′-sulfonamide] | 45.6 nM | 0.3906 µM | 31.25 µM | 200 µM | 537 nM | 
NS(=O)(=O)c1ccc(O)cc1-c1nn[nH]n1 [Example 254] |  |  |  |  |  | IC50 (VIM-1; VIM-1 enzyme, CCF2-FA fluorescence assay, read-out: VIM-1 IC50): 20000 nM; Escherichia coli MITC95 [1]: 3.125 µM; Serratia marcescens MITC95 [2]: >200 µM; Klebsiella pneumoniae MITC95 [3]: >200 µM
COC(=O)c1ccc(-c2nn[nH]n2)c(S(N)(=O)=O)c1 [Example 255, Methyl 3-sulfamoyl-4-(2H-tetrazol-5-yl)benzoate] |  |  |  |  |  | IC50 (NDM-1; [7]): 699 nM; Escherichia coli MITC95 [1]: 25 µM; Serratia marcescens MITC95 [2]: >200 µM; Klebsiella pneumoniae MITC95 [3]: >200 µM
NS(=O)(=O)c1ccc2ccccc2c1-c1nnn[nH]1 [Example 399, 1-(1H-tetrazol-5-yl)naphthalene-2-sulfonamide] |  |  |  |  |  | IC50 (NDM-1; [7]): 117 nM; IC50 (IMP-1; IMP-1 enzyme, CCF2-FA fluorescence assay, read-out: IMP-1 IC50): 15100 nM; Escherichia coli MITC95 [1]: 3.906 µM; Serratia marcescens MITC95 [2]: >200 µM; Klebsiella pneumoniae MITC95 [3]: >200 µM
